Experimental data taken from patent US8088742B2, “Polyol-glycoside compositions for the skin” (Societe d'Exploitation de Produits pour les Industries …, priority 2002, dated 2012).

Assays:
[1] = test system: normal human dermal fibroblast cultures; test: In vitro measurement of the production of hyaluronic acid in fibroblast cultures; type: cell-based; conditions: 5 days of incubation; for effect on the amount of extracellular hyaluronic acid (in words): 0.01% and 0.1% (w/v)
Protocol: B—In Vitro Measurement of the Effect of the Polyol-Glycosides According to the Invention on the Production of Hyaluronic Acid
To confirm the moisturizing activity of the polyol-glycosides according to the invention, the effect of these products on the amount of hyaluronic acid was measured. It is in fact known that hyaluronic acid is a major non-sulfated glycosaminoglycan which plays an essential role in moisturizing the skin, by means of its ability to attach up to 1000 times its weight in water.
The amount of hyaluronic acid is measured in normal human dermal fibroblast cultures.
The cells are incubated for 5 days in the presence of the test products solubilized in the incubation medium.
At the end of this incubation, the extracellular media, into which the hyaluronic acid is secreted, are removed.
The hyaluronic acid is stained with a specific dye, STAINS ALL ((1-ethyl-2-[3-(1-ethylnaphtho[1,2-d]thiazolin-2-ylidene)-2-methylpropenyl]naphtho[1,2-d]thiazolium) bromide, provided by Sigma), which interacts with the hyaluronic acid to produce a change of absorption spectrum between 620 and 660 nm, observed by means of a spectrophotometer. A standard range of hyaluronic acid is effected in parallel.
The polyols and the polyol-glucosides are tested in aqueous solution at 0.01% and 0.1% (w/v).
D0: seeding of the fibroblasts (24-well culture plates, 15 300 cells/well);
D3: incubation of the products tested, diluted in the fibroblast incubation medium;
D8: removal of the fibroblast incubation media, assaying of the hyaluronic acid.
At the end of the 5 days of incubation in the presence of the products, the incubation media are removed and incubated in the presence of STAINS ALL. The colorimetric reaction is visualized by adding water.
The quantification is carried out by spectrophotometry for a wavelength of 630 nm.
A standard range of hyaluronic acid (0 to 12.5 μg/ml) is effected in parallel.
The results are expressed in μg/ml of extracellular hyaluronic acid.
The results which were obtained, expressed as percentage increase in the amount of extracellular hyaluronic acid relative to the control group, are reported in the following table: […]

[2] = test system: skin (epidermis) in a normal volunteer; test: In vivo measurement of the moisturization of the skin with Hydrascan; parameters: species or system human; conditions: for effect on the degree of moisturization of the epidermis (in words) / Degree of moisturization of the skin measured with Hydrascan, Cycle 1: stratum corneum + superficial epidermis / Degree of moisturization of the skin measured with Hydrascan, Cycle 2: superficial + middle epidermis / Degree of moisturization of the skin measured with Hydrascan, Cycle 3: entire epidermis: 3% in cream gel; for effect on the degree of moisturization of the epidermis (in words): 8 h after application; for Degree of moisturization of the skin measured with Hydrascan, Cycle 1: stratum corneum + superficial epidermis / Degree of moisturization of the skin measured with Hydrascan, Cycle 2: superficial + middle epidermis / Degree of moisturization of the skin measured with Hydrascan, Cycle 3: entire epidermis: percentage increase relative to placebo zone, topical 20 mg/cm2, 8 h after application, mean of six volunteers
Protocol: A-In Vivo Measurement of the Moisturization of the Skin in a Normal Volunteer by Means of […] effect on the degree of moisturization of the skin of various polyol-glycosides according to the invention, of glyceryl glucoside and of various polyols was measured and compared in humans. […] This device comprises a micro-effusimeter connected to a flexible sensor and makes it possible to produce a thermal wave which propagates within the epidermis, and to register the variation in temperature during the pulse. […] 5% (weight/volume) of Lanol® 99 (isononyl isononanoate); 0.5% (weight/volume) of […]® HB (phenoxy-ethanol, methyl-, ethyl-, propyl-, butylparaben). A cream gel having the same composition but containing no test product is used as a placebo. The study is carried out on three groups of six volunteers, as a double-blind study, i.e. neither the experimenter nor the volunteer knows the identity of the test product. The following four skin zones are defined on the forearms of each volunteer: The products are applied topically at a rate of 20 mg/cm^2, the measurements being carried out 8 h after application. […] The degree of moisturization is measured by means of […]®, on each skin zone defined above, the values obtained for each of the three cycles being recorded and expressed as percentage increase in moisturization of the skin relative to the zone treated with the placebo.

human skin explant = test: In vitro measurement of the synthesis of epidermal ceramides in human skin explant model; type: cell-based; conditions: for effect on the neosynthesis of ceramides 1 and 2 (in words): 24 hours on human skin explants; for percentage increase in the amount of ceramide 1 relative to the control group / percentage increase in the amount of ceramide 2 relative to the control group: topical 3% in cream gel (EGF 10 ng/ml in culture medium), 24 hours, 14C-acetate labeling
Protocol: C—In Vitro Measurement of the Xylityl Glucoside According to the Invention on the Synthesis of Epidermal Ceramides
The study is carried out in vitro in a human skin explant model. The products, formulated at 3% in a cream gel, are applied to the surface of the skin explants for 24 hours. The neosynthesis of the epidermal lipids is studied by radioactive labeling (carbon 14-labeled acetate) of the neosynthesized lipids, followed by thin layer chromatography to separate the various types of lipids and in particular the ceramides.
The xylityl glucoside according to example 1 of the invention, formulated at 3% in a cream gel comprising 2% of Sepigel® 305, 5% of Lanol 99, and qs of water.
Epidermal growth factor (EGF), known to increase the synthesis of ceramides, which constitutes a reference molecule for this test. The EGF is tested at 10 ng/ml in the skin explant culture medium.
A commercially available formulation containing lactic acid, which constitutes a reference for the test, lactic acid being known to increase the synthesis of ceramides.
The study is carried out on disks of human skin originating from cosmetic surgery (abdominoplasty, person). Disks 8 mm in diameter are produced using a hole punch and deposited onto culture inserts placed in culture wells containing an appropriate nutritive medium (MEM/M199 medium (¾, ¼, v/v) supplemented with penicillin (50 IU/ml, streptomycin (50 μg/ml), sodium bicarbonate (0.2% w/v), serum (2% v/v) and carbon 14-labeled acetate (1 μCi/ml)).
The products are tested by topical application (except for the EGF) for 24 hours.
At the end of the 24 hours of incubation, the skin explants are rinsed with phosphate buffered saline. For each disk of skin, the dermis is dissociated from the epidermis by controlled heat shock (1 min at 70° C.). The epidermal lipids are extracted by a partition between an organic phase (methanol/chloroform (1:2)) and an aqueous phase (0.25 M potassium chloride). The organic phase is then evaporated under vacuum and the residue is taken up in a chloroform/methanol (2:1) mixture.
The various epidermal lipids are then separated by thin layer chromatography (silica 60): chloroform/acetone/methanol (38:2:10); chloroform/acetone/methanol (40:5:5); chloroform/ethyl acetate/diethyl ether/methanol (36:10:3:1). The radioactivity of the fractions thus separated is counted with a radioactivity analyzer (Storm, Amersham).
The results are expressed as % variation relative to the control group.

skin = test: Evaluation on the skin of acute skin irritation (Primary Cutaneous Irritation index); type: in vivo; conditions: for PCI index: Primary Cutaneous Irritation index; for Irritation classification: scale of the protocol in Journal Officiel de la République Francaise of Feb. 21, 1982
Protocol: The skin tolerance of the various polyol-glycosides was evaluated by means of a study of “evaluation on the skin of acute skin irritation”, carried out by an independent pharmaceutical and cosmetic consultancy-expertise company.
The Primary Cutaneous Irritation (PCI) index measurements, carried out according to the same protocol, are contained in the following table:
Each compound studied is classified, in view of the results obtained under the selected experimental conditions, nonirritant for the skin, with reference to the scale proposed in the protocol described in the Journal Officiel de la République Francaise [Official Journal of the French Republic] of Feb. 21, 1982.

| Compound | effect on the amount of extracellular hyaluronic acid (in words) [1] | percentage increase in the amount of extracellular hyaluronic acid relative to the control group ([1]; concentration 0.01% (w/v)) | percentage increase in the amount of extracellular hyaluronic acid relative to the control group ([1]; concentration 0.1% (w/v)) | effect on the degree of moisturization of the epidermis (in words) [2] | Degree of moisturization of the skin measured with Hydrascan, Cycle 1: stratum corneum + superficial epidermis [2] | Degree of moisturization of the skin measured with Hydrascan, Cycle 2: superficial + middle epidermis [2] | Degree of moisturization of the skin measured with Hydrascan, Cycle 3: entire epidermis [2] | increase in degree of moisturization greater than that obtained with glycerol ([2]; difference to glycerol across the epidermal layers) [%] | effect on the neosynthesis of ceramides 1 and 2 (in words) (human skin explant) | percentage increase in the amount of ceramide 1 relative to the control group (human skin explant) [%] | percentage increase in the amount of ceramide 2 relative to the control group (human skin explant) [%] | PCI index (skin) | Irritation classification (skin) |
| --- | --- | --- | --- | --- | --- | --- | --- | --- | --- | --- | --- | --- | --- |
| OC[C@@H](O)[C@H](O)[C@@H](O)CO [Xylitol, xylitol] | no effect | <10% | <10% | no effect | <5% | <5% | <5% | – | – | – | – | – | – |
| OC[C@@H](O)[C@@H](O)CO [Erythritol, erythritol] | no effect | <10% | <10% | – | +9% | +9% | +9% | – | – | – | – | – | – |
| Xylityl Glucoside [Example 1] | increase | +158% | +161% | very substantially increases | +28% | +33% | +30% | 14 to 20 | significantly increases | 295.7 | 236.5 | 0 | Nonirritant |
| O=C[C@H](O)[C@@H](O)[C@H](O)CO [Xylose, xylose] | – | – | – | no moisturizing effectiveness | <5% | <5% | <5% | – | – | – | – | – | – |
| Glyceryl Glucoside [Comparative example] | does not increase | <10% | <10% | – | <5% | <5% | <5% | – | – | – | – | 0 | Nonirritant |
| OCC(O)CO [Glycerol, glycerol] | no effect | – | – | – | – | – | – | – | not observed | – | – | – | – |
| Erythrityl Glucoside [Example 2] | – | +64% | <10% | – | +18% | +11% | +12% | – | – | – | – | 0 | Nonirritant |
| EGF: Epidermal growth factor, known to increase the synthesis of ceramides, reference molecule for this test | – | – | – | – | – | – | – | – | act, but less effectively | 166.1 | 152.3 | – | – |
